ChEMBL document CHEMBL3994583, “Discovery of 4-[(5-arylidene-4-oxothiazolidin-3-yl)methyl]benzoic acid derivatives active as novel potent allosteric inhibitors of protein tyrosine phosphatase 1B: In silico studies and in vitro evaluation as insulinomimetic and anti-inflammatory agents” (Eur J Med Chem, 2017)
pIC50, pKi: −log10 of the molar value. Active and inactive are the calls of the source. The calls are words filed in the database; no cut-off is given here.

Experiments:
C2C12 [1] = assay: Cytotoxicity against mouse C2C12 cells assessed as reduction in cell viability after 24 hrs by MTT assay; type: cell-based; details: c2c12, 24 h
NCTC-2544 [2] = assay: Cytotoxicity against human IFN-gamma and histamine-stimulated NCTC-2544 cells assessed as reduction in cell viability at 10 uM by MTT assay; type: cell-based; details: nctc-2544, 10 µM
[3] = biological target: T1, Tyrosine-protein phosphatase non-receptor type 1 (Homo sapiens) (UniProt P18031); assay: Inhibition of PTP1B in human HepG2 cells assessed as increase in phosphorylation of IRbeta at Tyr1162/1163 residues at 50 uM after 30 mins by Western blot method; type: cell-based
T1 sequence (whole entry): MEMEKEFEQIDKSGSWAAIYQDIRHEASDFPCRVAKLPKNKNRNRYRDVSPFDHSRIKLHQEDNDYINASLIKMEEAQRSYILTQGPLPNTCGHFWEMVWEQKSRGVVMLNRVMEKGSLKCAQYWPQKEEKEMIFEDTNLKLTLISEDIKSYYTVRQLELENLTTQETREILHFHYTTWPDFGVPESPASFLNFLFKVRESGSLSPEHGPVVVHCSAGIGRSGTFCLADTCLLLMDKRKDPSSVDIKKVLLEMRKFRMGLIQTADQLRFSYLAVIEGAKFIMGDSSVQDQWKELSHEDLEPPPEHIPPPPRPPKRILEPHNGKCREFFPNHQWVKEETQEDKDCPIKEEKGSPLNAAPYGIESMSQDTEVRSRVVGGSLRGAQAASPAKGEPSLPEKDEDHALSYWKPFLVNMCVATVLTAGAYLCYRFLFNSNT

[4] = biological target: T1, Tyrosine-protein phosphatase non-receptor type 1 (Homo sapiens); assay: Mixed-type inhibition of full length recombinant human PTP1B assessed as enzyme-substrate-inhibitor complex at 3 to 7.5 uM using pNPP as substrate by double reciprocal plot method
[5] = biological target: T2, Tyrosine-protein phosphatase non-receptor type 1 (Homo sapiens, UniProt P18031); assay: Inhibition of full length recombinant human PTP1B using pNPP as substrate by spectrophotometric method
T2 sequence (P18031 whole entry): T1 sequence (whole entry)

NCTC-2544 [6] = assay: Anti-inflammatory activity in IFN-gamma and histamine-stimulated human NCTC-2544 cells assessed as reduction in iNOS protein expression by Western blot method; type: functional, cell-based
[7] = biological target: T1, Tyrosine-protein phosphatase non-receptor type 1 (Homo sapiens); assay: Reversible inhibition of full length recombinant human PTP1B assessed as recovery of enzyme activity up to 50 uM using pNPP as substrate preincubated for 1 hr followed by substrate addition by spectrophotometric method; design: scale not given: the % may be the effect or the level left
HepG2 = assay: Cytotoxicity against human HepG2 cells assessed as reduction in cell viability at 25 uM after 24 hrs by MTT assay; type: cell-based; details: hepg2, 24 h
NCTC-2544 [8] = assay: Anti-inflammatory activity in IFN-gamma and histamine-stimulated human NCTC-2544 cells assessed as reduction in ICAM-1 protein expression by Western blot method; type: functional, cell-based
NCTC-2544 [9] = assay: Cytotoxicity against human NCTC-2544 cells assessed as reduction in cell viability at 10 uM by MTT assay; type: cell-based; details: nctc-2544, 10 µM
NCTC-2544 [10] = assay: Anti-inflammatory activity in IFN-gamma and histamine-stimulated human NCTC-2544 cells assessed as reduction in COX-2 protein expression by Western blot method; type: functional, cell-based
[11] = biological target: T3, Tyrosine-protein phosphatase non-receptor type 1 (Mus musculus) (UniProt P35821); assay: Inhibition of PTP1B in mouse C2C12 cells assessed as increase in phosphorylation of Akt at Ser473 residue at 50 uM after 30 mins by Western blot method; type: cell-based
T3 sequence (whole entry): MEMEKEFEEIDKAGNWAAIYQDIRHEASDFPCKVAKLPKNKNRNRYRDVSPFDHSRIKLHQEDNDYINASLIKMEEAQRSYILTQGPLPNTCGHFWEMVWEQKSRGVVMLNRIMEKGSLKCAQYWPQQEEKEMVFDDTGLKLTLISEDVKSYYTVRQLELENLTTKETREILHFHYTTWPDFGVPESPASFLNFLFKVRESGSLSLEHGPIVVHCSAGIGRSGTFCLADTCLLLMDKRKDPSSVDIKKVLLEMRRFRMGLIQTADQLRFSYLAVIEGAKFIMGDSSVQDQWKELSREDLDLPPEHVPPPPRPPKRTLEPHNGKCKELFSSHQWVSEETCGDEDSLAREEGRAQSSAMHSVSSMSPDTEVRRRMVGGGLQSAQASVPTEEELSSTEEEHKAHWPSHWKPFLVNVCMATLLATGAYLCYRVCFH

[12] = biological target: T3, Tyrosine-protein phosphatase non-receptor type 1 (Mus musculus); assay: Inhibition of PTP1B in mouse C2C12 cells assessed as increase in phosphorylation of IRbeta at Tyr1162/1163 residues at 50 uM after 30 mins by Western blot method; type: cell-based
[13] = biological target: T1, Tyrosine-protein phosphatase non-receptor type 1 (Homo sapiens); assay: Inhibition of PTP1B in human HepG2 cells assessed as increase in phosphorylation of Akt at Ser473 residue at 50 uM after 30 mins by Western blot method; type: cell-based
[14] = biological target: T2, Tyrosine-protein phosphatase non-receptor type 1; assay: Competitive inhibition of full length recombinant human PTP1B assessed as enzyme-inhibitor complex using pNPP as substrate by double reciprocal plot method
[15] = biological target: T2, Tyrosine-protein phosphatase non-receptor type 1; assay: Mixed non-competitive inhibition of full length recombinant human PTP1B assessed as enzyme-substrate-inhibitor complex using pNPP as substrate by double reciprocal plot method
[16] = biological target: T1, Tyrosine-protein phosphatase non-receptor type 1 (Homo sapiens); assay: Irreversible inhibition of full length recombinant human PTP1B assessed as recovery of enzyme activity up to 50 uM using pNPP as substrate preincubated for 1 hr followed by substrate addition by spectrophotometric method; design: scale not given: the % may be the effect or the level left
[17] = biological target: T1, Tyrosine-protein phosphatase non-receptor type 1 (Homo sapiens); assay: Competitive inhibition of full length recombinant human PTP1B assessed as enzyme-inhibitor complex up to 6 uM using pNPP as substrate by double reciprocal plot method
[18] = biological target: T1, Tyrosine-protein phosphatase non-receptor type 1 (Homo sapiens); assay: Competitive inhibition of full length recombinant human PTP1B assessed as enzyme-inhibitor complex up to 8 uM using pNPP as substrate by double reciprocal plot method
[19] = biological target: T1, Tyrosine-protein phosphatase non-receptor type 1 (Homo sapiens); assay: Mixed-type inhibition of full length recombinant human PTP1B assessed as enzyme-substrate-inhibitor complex at 3 to 9 uM using pNPP as substrate by double reciprocal plot method
C2C12 [20] = assay: Insulinomimetic effect in mouse C2C12 cells assessed as induction of [3H]2-deoxyglucose uptake at 50 uM preincubated for 30 mins followed by [3H]2-deoxyglucose addition measured after 15 mins by liquid scintillation counting method; type: functional, cell-based
[21] = biological target: T1, Tyrosine-protein phosphatase non-receptor type 1 (Homo sapiens); assay: Inhibition of PTP1B in human HepG2 cells assessed as increase in phosphorylation of IRbeta at Tyr1162/1163 residues at 50 uM by Western blot method; type: cell-based; details: TDE = time-dependent effect
[22] = biological target: T1, Tyrosine-protein phosphatase non-receptor type 1 (Homo sapiens); assay: Inhibition of PTP1B in human HepG2 cells assessed as increase in phosphorylation of IRbeta at Tyr1162/1163 residues at 50 uM after 180 mins by Western blot method; type: cell-based

Row | inhibition [3] | pIC50 [5] | Activity [7] | inhibition [11] | inhibition [12] | inhibition [13] | Activity [16] | Compound | Activity (C2C12 [1]) | Activity (NCTC-2544 [2]) | Activity (NCTC-2544 [6]) | Activity (HepG2) | Activity (NCTC-2544 [8]) | Activity (NCTC-2544 [9]) | Activity (NCTC-2544 [10]) | also measured
1 | inactive | 5.30 | 75 to 100% | – | – | – | – | O=C(O)c1ccc(CN2C(=O)/C(=C/c3ccc(OCc4ccccc4)cc3)SC2=S)cc1 | Non-Toxic | Non-Toxic | Active | Non-Toxic | Active | Non-Toxic | Active | inhibition [4]: Active
2 | Active | 5.72 | 75 to 100% | inactive | Active | Active | – | O=C(O)c1ccc(CN2C(=O)/C(=C/c3ccc(OCc4ccccc4)cc3)S/C2=N\c2ccc(F)cc2)cc1 | Non-Toxic | – | – | Non-Toxic | – | Toxic | – | pKi [14]: 5.85
3 | – | 4.84 | – | inactive | Active | – | 10 to 50% | O=C(O)c1ccc(CN2C(=O)/C(=C/c3cccc(OCCc4ccccc4)c3)S/C2=N\c2ccc(F)cc2)cc1 | Non-Toxic | – | – | Non-Toxic | – | Toxic | – | pKi [15]: 5.64
4 | inactive | 5.24 | 75 to 100% | – | – | – | – | O=C(O)c1ccc(CN2C(=O)/C(=C/c3cccc(OCc4ccccc4)c3)SC2=S)cc1 | Non-Toxic | Non-Toxic | Active | Non-Toxic | Active | Non-Toxic | Active | inhibition [18]: Active
5 | inactive | 4.97 | 75 to 100% | – | – | – | – | O=C(O)c1ccc(CN2C(=O)/C(=C/c3ccc(Oc4ccccc4)cc3)SC2=S)cc1 | Non-Toxic | Non-Toxic | Active | Non-Toxic | Active | Non-Toxic | inactive | inhibition [19]: Active
6 | inactive | 5.15 | 75 to 100% | – | – | – | – | O=C(O)c1ccc(CN2C(=O)/C(=C/c3cccc(Oc4ccccc4)c3)SC2=S)cc1 | Non-Toxic | Non-Toxic | Active | Non-Toxic | Active | Non-Toxic | Active | inhibition [19]: Active
7 | – | 5.82 | – | inactive | Active | – | 10 to 50% | O=C(O)c1ccc(CN2C(=O)/C(=C/c3ccc(OCCc4ccccc4)cc3)S/C2=N\c2ccc(F)cc2)cc1 | Non-Toxic | – | – | Non-Toxic | – | Toxic | – | pKi [15]: 6.00
8 | – | 5.29 | – | Active | Active | Active | 10 to 50% | O=C(O)c1ccc(CN2C(=O)/C(=C/c3ccc(Oc4ccccc4)cc3)S/C2=N\c2ccc(F)cc2)cc1 | Non-Toxic | – | – | Non-Toxic | – | Toxic | – | inhibition [21]: Tde; inhibition [22]: inactive; pKi [14]: 5.00
9 | Active | 5.38 | – | inactive | Active | Active | 10 to 50% | O=C(O)c1ccc(CN2C(=O)/C(=C/c3cccc(OCc4ccccc4)c3)S/C2=N\c2ccc(F)cc2)cc1 | Non-Toxic | – | – | Non-Toxic | – | Toxic | – | pKi [15]: 5.82
10 | inactive | 5.46 | 75 to 100% | – | – | – | – | O=C(O)c1ccc(CN2C(=O)/C(=C/c3ccc(OCCc4ccccc4)cc3)SC2=S)cc1 | Non-Toxic | Toxic | Active | Non-Toxic | – | Toxic | Active | inhibition [18]: Active

Row | Compound | inhibition [3] | pIC50 [5] | Activity [7] | inhibition [11] | inhibition [12] | inhibition [13] | Activity [16] | Activity (C2C12 [1]) | Activity (NCTC-2544 [2]) | Activity (NCTC-2544 [6]) | Activity (HepG2) | Activity (NCTC-2544 [8]) | Activity (NCTC-2544 [9]) | Activity (NCTC-2544 [10]) | also measured
11 | O=C(O)c1ccc(CN2C(=O)/C(=C/c3cccc(OCCc4ccccc4)c3)SC2=S)cc1 | inactive | 5.72 | 75 to 100% | – | – | – | – | Non-Toxic | Toxic | Active | Non-Toxic | Active | Toxic | Active | inhibition [17]: Active
12 | O=C(O)c1ccc(CN2C(=O)/C(=C/c3cccc(Oc4ccccc4)c3)S/C2=N\c2ccc(F)cc2)cc1 | Active | 5.00 | – | Active | Active | Active | 10 to 50% | Non-Toxic | Non-Toxic | Active | Non-Toxic | inactive | Non-Toxic | Active | Activity (C2C12 [20]): Active; pKi [14]: 5.36
